Reference: US5620864A, “Acceptor for fucosyl transferase” (Health Research, Inc., priority 1992, dated 1997)
Where “and” joins values, the source holds several entries; their conditions need not be identical. Equal entries are not always repeated.

Legend:
[1] = test system: α1,3-L-fucosyltransferase of the particulate fraction of ovarian tumor; assay: Assay of α1,3-fucosyltransferase with synthetic acceptors, ovarian tumor particulate fraction; format: biochemical, human; details: for Relative Percent: 2'-methyl LacNAc = 100; for [14C] Fucose Incorporated (CPM): acceptor 3.0 mM, 37° C. 18 h
Method: FIG. 2 The scheme for the preparation of the particulate and soluble fractions of human ovarian tumor.
(§1) An incubation mixture contained 50 mM HEPES-NaOH, pH 7.5, 5 mM MnC12, 7 mM ATP, 3 mM NaN3, the acceptor 0.3 mM (for serum enzyme) or 3.0 mM (for tumor enzyme), 0.125 μCi of GDP-[U-^14 C] Fuc (Sp. Act. 216 mCi/mmol) and enzyme in a total volume of 0.10 ml; the control incubation mixture had everything except the acceptor. At the end of incubation at 37° C. for 18 h, the mixture was diluted with 1 ml water and passed through Dowex-1-C1 column (1 ml in a Pasteur pipet). The column was washed twice with 1 ml water; the breakthrough and wash, which contained the [^14 C] fucosylated neutral acceptor, were collected together in a scintillation vial and counted for radioactivity using the scintillation coctail 3a70 (Research Products International, Mount Prospects, Ill.) and Beckman LS9000. The Dowex column was then eluted successively with 3 ml each of 0.1M and 0.2M NaCl; these eluates which contained the [^14 C] fucosylated sulfated acceptors, were counted for radioactivity as before. Corrections were made by subtracting the radioactivity in the water and NaCl eluates of the control incubation mixture from the corresponding test fractions. The duplicate runs of samples gave almost identical values, the difference being <5%.
This finding is quite different from what we found with the soluble fraction, where α1,4-fucosyltransferase activity seems to be greater than α1,3-fucosyltransferase activity. […] The different nature of the above enzymes was made further clear, when sulfated derivatives of LacNAc was tested as acceptors.

[2] = test system: α1,3-L-fucosyltransferase of the soluble fraction of human ovarian tumor; assay: Assay of α1,3-fucosyltransferase with synthetic acceptors, partially purified enzyme of ovarian tumor soluble fraction; format: biochemical; details: for [14C] Fucose Incorporated (CPM): acceptor 3.0 mM, 37° C. 18 h
Method: as §1
As shown in the scheme set forth in FIG. 2, the α-L-fucosidase-free extract of the tissue (40 g), after concentration by 80% (NH4)2 SO4 precipitation was fractionated on bovine IgG glycopep-Sepharose in batches of 25 ml. After washing the column with the equilibration buffer, the bound enzyme was eluted with 1 M NaCl in the same buffer. The protein positive fractions were pooled and processed as shown in the scheme 2.0 ml of the above preparation was loaded on a Sephacryl S-200 column (Superfine:2.6 cm×88.0 cm) equilibrated at 4° C. with 50 mM Tris-HC1, pH 7.0 containing 0.15M NaCl and 0.1% Triton X-100 and eluted with the same buffer. Fractions of 3.0 ml were collected. The fucosyltransferase activity was located in the effluent fractions, by assaying first every 5th fraction and then obtaining the activity profile by assaying the alternate fractions in that range, using 2'-fucosyl LacNAc as the acceptor. […] Its elution position, which is slightly later than BSA, run separately on the same column, indicates its molecular weight as <67,000 daltons. […] The enzyme has been purified 66 fold over the soluble extract with a recovery of 6.2%. The enzyme at this stage lost its activity either kept frozen at -20° C. or left at 4° C. for more than a week. However, the enzyme at the end of the previous step was fairly stable for at least two months at 4° C. So this preparation of enzyme was used in acceptor ability comparison studies.
When α1,3-fucosyltransferase activity of the partially purified enzyme preparation from the soluble portion of ovarian tumor was measured and compared with the activity of other acceptors, the following results were obtained. 2'-methyl LacNAc, LacNAc and Galβ1, 3GlcNAc were respectively 100.0%, 60.6% and 565.5% active, indicating the presence of both α1,3 and α1,4 fucosyltransferase activities in this preparation.

[3] = molecular target: T1, serum α1,3-L-fucosyltransferase (Homo sapiens, UniProt P51993); assay: Assay of α1,3-fucosyltransferase with various synthetic acceptors, ovarian cancer sera as enzyme source; format: biochemical; details: for [14C] Fucose Incorporated (CPM): acceptor 0.3 mM, 37° C. 18 h
T1 construct: Sera were collected from healthy females and ovarian cancer patients; from tissue; host or cells: blood serum of ovarian cancer patients and healthy females
T1 sequence (P51993 35-359 limits assumed): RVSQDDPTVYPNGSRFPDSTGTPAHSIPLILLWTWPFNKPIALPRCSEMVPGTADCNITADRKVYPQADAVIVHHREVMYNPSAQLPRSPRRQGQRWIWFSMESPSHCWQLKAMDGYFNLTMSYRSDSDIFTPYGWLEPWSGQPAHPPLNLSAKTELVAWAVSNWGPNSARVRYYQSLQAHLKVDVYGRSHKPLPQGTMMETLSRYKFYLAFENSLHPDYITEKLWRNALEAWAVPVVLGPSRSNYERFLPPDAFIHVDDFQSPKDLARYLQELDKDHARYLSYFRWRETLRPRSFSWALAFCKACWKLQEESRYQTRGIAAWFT
Method: Sera were collected from healthy females and ovarian cancer patients admitted to Roswell Park Cancer Institute in Buffalo, N.Y., USA. Ovarian tumor tissues were obtained during surgical procedures from patients with ovarian cancer. Both sera and tissues were stored frozen at -70° C. until use.
as §1
The activity of serum α1,3-fucosyltransferase was measured with the specific substrate 2'-methyl LacNAc and compared with the ability of several other synthetic substrates to act as an acceptor of fucose.
When the structure of the acceptor 2'-methyl LacNAc was modified by replacing the methyl group with sulfate group in C-2', 3', 6' or 6 position and tested their ability to act as the acceptor of fucose, the following novel findings emerged. […] The β-benzyl glycoside of 3' sulfo LacNAc was quite active (168.4%) but less than the parent compound.

| SMILES | Relative Percent [1] | [14C] Fucose Incorporated (CPM) [1] | Relative Percent ([2]; 2'-methyl LacNAc = 100) | Relative Percent ([2]; 2'-methyl LacNAc = 100, listed as 6' sulfo LacNAc) | Relative Percent ([2]; 2'-methyl LacNAc = 100, listed as 6-'-sulfo LacNAc) | [14C] Fucose Incorporated (CPM) [2] | Relative Percent ([3]; 2'-methyl LacNAc = 100) | [14C] Fucose Incorporated (CPM) [3] | Relative Percent ([2]; 2'-methyl LacNAc = 100, listed as 2' sulfo LacNAc) | Relative Percent ([2]; 2'-methyl LacNAc = 100, listed as 2' sulfo-LacNAc) | Relative Percent ([2]; 2'-methyl LacNAc = 100, listed as β-benzyl glycoside of Galβ1, 3 Glc NAc) | Relative Percent ([2]; 2'-methyl LacNAc = 100, listed as β-benzyl glycoside of Galβ1,3GlcNAc) | Relative Percent ([2]; 2'-methyl LacNAc = 100, listed as 3-sulfo Galβ1,3GlcNAcβ-O-Bn) | Relative Percent ([2]; 2'-methyl LacNAc = 100, listed as β-benzyl glycoside of 3-sulfoGalβ1, 3 GlcNAc) | Relative Percent ([3]; 2'-methyl LacNAc = 100, listed as 3-Sulfo Galβ1, 3GlcNAcβ-O-Bn) | Relative Percent ([2]; 2'-methyl LacNAc = 100, listed as 6-sulfo LacNAc) |
| --- | --- | --- | --- | --- | --- | --- | --- | --- | --- | --- | --- | --- | --- | --- | --- | --- |
| CC(=O)N[C@H]1C(O)O[C@H](CO)[C@@H](O[C@@H]2O[C@H](COS(=O)(=O)O)[C@H](O)[C@H](O)[C@H]2O)[C@@H]1O (stereo partly drawn) [6'-Sulfo LacNAc] | 42.6% | 20543 CPM | 5.3% | 5% | 5.3% | 395 CPM | 36.2% | 626 CPM |  |  |  |  |  |  |  |  |
| CC(=O)N[C@H]1C(O)O[C@H](CO)[C@@H](O[C@@H]2O[C@H](CO)[C@H](O)[C@H](O)[C@H]2OS(=O)(=O)O)[C@@H]1O (stereo partly drawn) [2'-Sulfo LacNAc] | 9.8% | 4718 CPM | 32.7% |  |  | 2414 CPM | 22.0% | 380 CPM | 33% | 32.7% |  |  |  |  |  |  |
| CC(=O)N[C@H]1[C@H](OCc2ccccc2)O[C@H](CO)[C@@H](O)[C@@H]1O[C@@H]1O[C@H](CO)[C@H](O)[C@H](O)[C@H]1O [Ga1β1,3G1cNAcβ-O--Bn] | 37.8% | 18221 CPM | 1004.5% |  |  | 74260 CPM | 21.7% | 376 CPM |  |  | 1005% | 1004.5% |  |  |  |  |
| CC(=O)N[C@H]1[C@H](OCc2ccccc2)O[C@H](CO)[C@@H](O[C@@H]2O[C@H](CO)[C@H](O)[C@H](O)[C@H]2O)[C@@H]1O [LacNAcβ-O--Bn] | 132.9% | 64223 CPM | 111.6% |  |  | 8249 CPM | 358.8% | 6207 CPM |  |  |  |  |  |  |  |  |
| CC(=O)N[C@H]1[C@H](OCc2ccccc2)O[C@H](CO)[C@@H](O)[C@@H]1O[C@@H]1O[C@H](CO)[C@H](O)[C@H](OS(=O)(=O)O)[C@H]1O [3-SulfoGa1β1,3G1cNAcβ-O--Bn, Benzyl 3-0-(sodium β-D-Galactopyranosy 3-Sulfate)-2-acetamido-2-deoxy-β-D-Glucopyranoside] | 2.9% | 1382 CPM | 415.4% |  |  | 30704 CPM | 0% | 0 CPM |  |  |  |  | 415.4% | 415% | did not show any activity |  |
| CC(=O)N[C@H]1C(O)O[C@H](COS(=O)(=O)O)[C@@H](O[C@@H]2O[C@H](CO)[C@H](O)[C@H](O)[C@H]2O)[C@@H]1O (stereo partly drawn) [6-Sulfo LacNAc, β-D-GALACTOPYRANOSYL-(1→4)-SODIUM 2-ACETAMIDO-2-DEOXY-D-GLUCOPYRANOSE 6-SULFATE] | 53.3% | 25740 CPM | 272.6% |  |  | 20148 CPM | 172.4% | 2983 CPM |  |  |  |  |  |  |  | 272% and 272.6% |
| CC(=O)N[C@H]1[C@H](OCc2ccccc2)O[C@H](CO)[C@@H](O[C@@H]2O[C@H](CO)[C@H](O)[C@H](O)[C@H]2O[C@@H]2O[C@@H](C)[C@@H](O)[C@@H](O)[C@@H]2O)[C@@H]1O [2'-Fucosyl LacNAcβ-O--Bn] | 174.0% | 83975 CPM | 373.0% |  |  | 27571 CPM | 425.0% | 7352 CPM |  |  |  |  |  |  |  |  |
| CO[C@@H]1O[C@H](CO)[C@H](O)[C@H](O[C@@H]2O[C@H](CO)[C@@H](O)[C@H](O[C@@H]3O[C@H](CO)[C@H](O)[C@H](O)[C@H]3O)[C@H]2NC(C)=O)[C@H]1O [Ga1β1,3G1cNAcβ1,3Ga1β-O--Me] | 42.6% | 20559 CPM |  |  |  |  | 42.7% | 739 CPM |  |  |  |  |  |  |  |  |
| CC(=O)N[C@H]1[C@@H](Oc2ccccc2[N+](=O)[O-])O[C@H](CO[C@@H]2O[C@H](CO)[C@@H](O)[C@H](O)[C@H]2NC(C)=O)[C@H](O)[C@@H]1O [G1cNAcβ1,6Ga1NAcα-O--ONp] |  |  | 0% |  |  | 0 CPM | 9.5% | 164 CPM |  |  |  |  |  |  |  |  |
| CO[C@H]1[C@H](O[C@H]2[C@H](O)[C@@H](NC(C)=O)[C@H](OCc3ccccc3)O[C@@H]2CO)O[C@H](CO)[C@H](O)[C@@H]1O [2'-methyl LacNAcβ-O--Bn] | 149.2% | 71989 CPM | 113.2% |  |  | 8367 CPM | 307.9% | 5326 CPM |  |  |  |  |  |  |  |  |
| CC(=O)N[C@H]1[C@H](OCc2ccccc2)O[C@H](CO)[C@@H](O[C@@H]2O[C@H](CO)[C@H](O)[C@H](OS(=O)(=O)O)[C@H]2O)[C@@H]1O [3'-Sulfo LacNAcβ-O--Bn, Benzyl 4-0-(sodium β-D-Galactopyranosyl 3-Sulfate)-2-acetamido-2-deoxy-β-D-Glucopyranoside] | 33.3% | 16062 CPM | 183.8% |  |  | 13585 CPM | 168.4% | 2913 CPM |  |  |  |  |  |  |  |  |
| CC(=O)N[C@H]1C(O)O[C@H](CO)[C@@H](O[C@@H]2O[C@H](CO)[C@H](O)[C@H](O)[C@H]2O)[C@@H]1O[C@@H]1O[C@@H](C)[C@@H](O)[C@@H](O)[C@@H]1O (stereo partly drawn) [3-Fucosyl LacNAc] | 3.7% | 1801 CPM | 1.9% |  |  | 144 CPM | 4.7% | 82 CPM |  |  |  |  |  |  |  |  |
| CC(=O)N[C@H]1C(O)O[C@H](CO)[C@@H](O[C@@H]2O[C@H](CO)[C@H](O)[C@H](O)[C@H]2O)[C@@H]1O (stereo partly drawn) [LacNAc] | 61.8% | 29842 CPM | 60.6% |  |  | 4480 CPM | 93.4% | 1615 CPM |  |  |  |  |  |  |  |  |
